Columns and labels:
5-Lipoxygenase = biological target: T1, 5-Lipoxygenase (Homo sapiens, UniProt P09917); assay: Inhibition of 5-Lipoxygenase in Human Whole Blood (LTB4, calcium ionophore A23187); assay type: cell-based
T1 construct: endogenous in cells; host or cells: human whole blood from male donors (results expressed per 10^6 neutrophils)
T1 sequence (P09917 1-674): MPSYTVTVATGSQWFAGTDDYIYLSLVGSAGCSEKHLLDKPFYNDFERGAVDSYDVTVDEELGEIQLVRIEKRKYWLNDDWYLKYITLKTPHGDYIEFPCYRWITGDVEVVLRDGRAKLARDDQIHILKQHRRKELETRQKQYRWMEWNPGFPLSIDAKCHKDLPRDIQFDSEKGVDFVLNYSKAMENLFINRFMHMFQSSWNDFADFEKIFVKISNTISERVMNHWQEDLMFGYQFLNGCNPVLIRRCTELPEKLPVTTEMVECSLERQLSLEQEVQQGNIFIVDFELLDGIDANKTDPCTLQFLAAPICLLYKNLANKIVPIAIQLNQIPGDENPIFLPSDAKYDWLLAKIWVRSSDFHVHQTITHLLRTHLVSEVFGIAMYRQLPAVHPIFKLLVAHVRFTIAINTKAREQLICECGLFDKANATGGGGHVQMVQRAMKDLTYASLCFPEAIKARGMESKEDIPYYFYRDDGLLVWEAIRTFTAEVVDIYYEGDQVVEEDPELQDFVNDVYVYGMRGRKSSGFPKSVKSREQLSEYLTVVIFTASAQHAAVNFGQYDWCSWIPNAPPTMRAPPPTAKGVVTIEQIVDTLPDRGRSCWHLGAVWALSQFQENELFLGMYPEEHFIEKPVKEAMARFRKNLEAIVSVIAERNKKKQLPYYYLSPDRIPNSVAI
Description: 1. Inhibition of 5-Lipoxygenase in Human Whole Blood
Blood is obtained in 50-100 ml quantities from male donors. White blood cell counts and differentials are made. Two ml of blood are placed in a 15 ml polypropylene test tube. Test compounds are solubilized in dimethylsulfoxide and diluted in 1:10 in 10% bovine serum albumin in phosphate buffered saline, pH 7.4 resulting in a final dimethylsulfoxide concentration of 0.1% in the blood. Then, solutions of test compounds are added to the blood in a shaking water bath at 37° C. for 10 minutes prior to the addition of 30 μM calcium ionophore (A23 187, Sigma). After ionophore administration, whole blood samples are mixed and incubated for 20 minutes at 37° C. in a shaking water bath. Incubation is terminated by placing samples in an ice bath and immediately adding ethylene glycol-bis-(β-aminoethyl ether)-N,N,N',N'-tetraaceticacid (10 mM). Samples are mixed and centrifuged at 1200 x g for 15 minutes at 4° C. Preparation of samples for evaluation by RIA or ELISA is carried out by the following protocol. Plasma is removed from sample tubes, placed in 15 ml polypropylene test tubes containing 8 ml methanol, and then vortexed to precipitate protein. Samples are stored at -70° C. overnight. The next day, samples are centrifuged at 200 x g for 15 minutes at 4° C. to pellet the precipitate. Samples are dried in a Savant SpeedVac Concentrator, Model SVC 200H, reconstituted to original volume with ice cold RIA or ELISA buffer, and stored at -70° C. until assayed. The assay for eicosanoids (LTB4, TxB2, and PGE2) is performed as described by the manufacturer of the [^3 H]-RIA kit or ELISA kit (LTB4 -Amersham, TxB2 and PGE2 -Caymen Chemical).
The total eicosanoid level in 2 ml of blood is calculated and reported as ng/10^6 neutrophils. Significance is determined by a one-way analysis of variance with least significant difference (LSD) comparisons to control (p≤0.05) and IC50 's (μM) are determined by regression analysis (Finney, 1978). Drug effects are expressed as percent change from control values.

LTB4 Synthesis = assay: Reverse Passive Arthus Reaction (pleurisy), LTB4 in pleural exudate; assay type: in vivo, rat (male Lewis); settings: for ED50: Rattus norvegicus, po, values in parentheses are ED50, read-out: (ED50) Inhibition of LTB4; for ED50 / % Inhibition of LTB4: standard drugs
Description: 3. Reverse Passive Arthus Reaction
A reverse passive Arthus reaction is induced in the pleural cavity of male Lewis rats (150-200 g; fasted overnight prior to use) by the intravenous administration of bovine serum albumin (BSA; 4 mg/0.2 ml) followed 30 minutes later by the injection of rabbit anti-BSA (1 mg/0.2 ml; lyophilized IgG fraction; Organon Teknika, West Chester, Pa.) into the right pleural space under halothane anesthesia. Drugs or vehicle (0.5% Tween-80) control are administered orally in a volume of 1 ml/100 g body weight at 1 hour prior to the anti-BSA. Animals are sacrificed at either the time of peak eicosanoid production (i.e. 5 minutes after anti-BSA for immunoreactive TxB2, 10 minutes for immunoreactive LTB4, 20 minutes for immunoreactive LTC4) or at the time of peak neutrophil infiltration (4 hours after anti-BSA) by CO2 inhalation. The pleural cavity is then exposed., the fluid exudate removed by gentle vacuum aspiration and the volume of exudate is recorded. For the determination of cellular infiltration, the pleural cavity is rinsed with 3 ml of 0.1% EDTA in sterile saline, and the recovered wash is pooled with the exudate. Cell number is determined on a model ZBI Coulter counter. For determination of eicosanoid production, undiluted pleural exudate is microfuged and the supernatant is extracted with ethanol (8-10 times volume). Extracts are either stored at -20° C., or are evaporated to dryness under a stream of N2 and reconstituted in radioimmunoassay (RIA) buffer.
Eicosanoids are quantitated by RIA according to the procedure specified by the RIA kit manufacturer (Advanced Magnetics, Cambridge, Mass.). Briefly, 100 μl of ^3 H-labeled eicosanoid and 100 μl of specific antibody are sequentially added to 100 μl of extracted pleural exudate in BGG-phosphate buffer which contains 0.01M phosphate, 0.1% bovine gamma globulin and 0.1% sodium azide at pH 7.0. Antibody-bound eicosanoid is separated from unbound eicosanoid by the addition of 750 μl of dextran (0.4%)-coated charcoal (Norit A) containing 0.1% sodium azide. The mixture is centrifuged at 2000 RPM at 5° C. for 15 minutes to pellet the charcoal and adsorbed unbound eicosanoid. Antibody-bound labeled eicosanoid is quantitated by counting in a liquid scintillation counter, and is correlated to concentration by a standard curve.

[1] = tested on: LT-dependent bronchoconstriction; assay: Inhibition of Bronchoconstriction in Guinea Pigs Induced by Exogenously Administered Antigen; assay type: in vivo, guinea pig (male); settings: Cavia porcellus, 5 min, 5 min post-antigen challenge; for inhibition in vivo at 10 mg/kg: iv, 10 mg/kg i.v.
Description: 4. Inhibition of Brochoconstriction in Guinea Pigs Induced by Exogenously Administered Antigen
Male guinea pigs (Charles River, Wilmington, Mass.) were sensitized 3-4 weeks prior to antigen challenge by administration of 2 i.m. injections of ovalbumin, 1 into each hind limb (35 mg total). Sensitized animals (500-600 g) were fasted overnight prior to experimentation. Conscious animals were then dosed p.o. with drug or vehicle alone (0.5% Tween 80 in H2 O) at the indicated times prior to antigen challenge, or anesthetized animals were dosed i.v. with drug or vehicle alone (DMSO) 5 min prior to antigen challenge. Animals were anesthetized by urethane (2.8 g/kg i.p.). A carotid artery and jugular vein were cannulated to allow for the monitoring of blood pressure and the administration of drugs, respectively. The trachea was then cannulated and connected to a Harvard Apparatus rodent ventilator (S. Natick, Mass.). Spontaneous respiration was abolished by the administration of succinylcholine (2.5 mg/kg i.v.). The animals were then ventilated with room air at a rate of 65 breaths per min. Airway inflation pressure was measured using a Statham pressure transducer (Gould Instruments, Cleveland, Ohio) connected to the tracheal cannula via a side-arm and recorded on a Grass Instruments recorder (Quincy, Mass.). The tidal volume (approximately 10 cc/kg) was adjusted to give a baseline inflation pressure of 8-10 cm H2 O at end inspiration. Animals were then allowed 20 min to stabilize.
Following the stabilization period, animals were given i.v. injections of pyrilamine (5 mg/kg), propranolol (0.1 mg/kg) and indomethacin (10 mg/kg) at 15, 10 and 5 min, respectively, prior to antigen challenge. This pretreatment results in an LT-dependent bronchoconstriction following antigen challenge, which was accomplished by i.v. administration of ovalbumin (10 mg/kg). Only one bronchoconstriction per animal was induced. End-inspiratory inflation pressure (in cm H2 O over baseline) was measured at 5 min post-antigen challenge. A mean value and standard error for the % inhibition of control bronchoconstriction in each drug-treated group was then calculated.

Compound: 1,3-Dihydroxy-1-[4-(5-methyl-2-phenyl-oxazol-4-ylmethoxy)-benzyl]-urea [Example 17]
- % Inhibition of LTB4 (5-Lipoxygenase; 10 μM): 83%

Compound: NC1=NN(c2cccc(C(F)(F)F)c2)CC1 [BW755C, reference compound]
- ED50 (LTB4 Synthesis; p.o.): 23 mg/kg

Compound: O=C(O)Cc1ccccc1Nc1c(Cl)cccc1Cl [Diclofenac, reference compound]
- % Inhibition of LTB4 (LTB4 Synthesis; 10 mg/kg p.o.): 0%

Compound: NC(=S)N(O)Cc1cccc(OCc2coc(-c3ccc(F)cc3)n2)c1 [Example 4, 1-Hydroxy-1-[3-[2-(4-fluoro-phenyl)-oxazol-4-ylmethoxy]-benzyl]-thiourea]
- inhibition at 1 µM (5-Lipoxygenase): 61%
- inhibition in vivo at 10 mg/kg [1]: 53%

Compound: COc1ccc(-c2nc(COc3cccc(CN(O)C(N)=O)c3)cs2)cc1 [Example 7, 1-Hydroxy-1-[3-[2-(4-methoxy-phenyl)-thiazol-4-ylmethoxy]-benzyl]-urea]
- inhibition at 1 µM (5-Lipoxygenase): 50%
- inhibition in vivo at 10 mg/kg [1]: 58%
- inhibition in vivo at 25 mg/kg ([1]; po, 25 mg/kg p.o.): 18%

Compound: Cc1oc(-c2ccc(Cl)cc2)nc1COc1cccc(CN(O)C(N)=O)c1 [Example 8, 1-[3-[2-(4-Chloro-phenyl)-5-methyl-oxazol-4-ylmethoxy]-benzyl]-1-hydroxy-urea]
- inhibition at 1 µM (5-Lipoxygenase): 77%
- % Inhibition LTB4 Synthesis (LTB4 Synthesis; 10 mg/kg, p.o.): 39%
- inhibition in vivo at 10 mg/kg [1]: 41%

Compound: Cc1oc(-c2cccc(C(F)(F)F)c2)nc1COc1cccc(CN(O)C(N)=O)c1 [Example 10, 1-Hydroxy-1-[3-[2-(3-trifluoromethyl-phenyl)-5-methyl-oxazol-4-ylmethoxy]-benzyl]-urea]
- inhibition at 1 µM (5-Lipoxygenase): 51%

Compound: Cc1oc(-c2cc(C(F)(F)F)cc(C(F)(F)F)c2)nc1COc1cccc(CN(O)C(N)=O)c1 [Example 11, 1-[3-[2-(3,5-Bis-trifluoromethyl-phenyl)-5-methyl-oxazol-4-ylmethoxy]-benzyl]-1-hydroxy-urea]
- inhibition at 10 µM (5-Lipoxygenase; 10 μM): 57%

Compound: Cc1oc(-c2ccc(C(F)(F)F)cc2)nc1COc1cc(F)cc(CN(O)C(N)=O)c1 [Example 12, 1-[3-Fluoro-5-[5-methyl-2-(4-trifluoromethyl-phenyl)-oxazol-4-ylmethoxy]-benzyl]-1-hydroxy-urea]
- inhibition at 10 µM (5-Lipoxygenase; 10 μM): 85%

Compound: Cc1oc(-c2ccccc2)nc1COc1cccc(C(C)N(O)C(N)=O)c1 (stereo not shown) [Example 14, 1-Hydroxy-1-[1-[3-(5-methyl-2-phenyl-oxazol-4-ylmethoxy)-phenyl]-ethyl]-urea]
- inhibition at 10 µM (5-Lipoxygenase; 10 μM): 80%

Compound: CC(/C=C/c1cccc(OCc2csc(-c3ccccc3)n2)c1)N(O)C(N)=O (stereo not shown) [Example 15, (E)-1-Hydroxy-1-[1-methyl-3-[3-(2-phenyl-thiazol-4-ylmethoxy)-phenyl]-allyl]-urea]
- inhibition at 10 µM (5-Lipoxygenase; 10 μM): 47%

Compound: Cc1oc(-c2ccc(Cl)cc2)nc1COc1cccc(/C=C/C(C)N(O)C(N)=O)c1 (stereo not shown) [Example 16, (E)-1-[3-[3-[2-(4-chlorophenyl)-5-methyl-oxazol-4-ylmethoxy]-phenyl]-1-methyl-allyl]-1-hydroxyl-urea]
- inhibition at 10 µM (5-Lipoxygenase; 10 μM): 57%

Compound: Cc1oc(-c2ccccc2)nc1COc1cccc(CN(O)C(=O)N(C)O)c1 [Example 18, 1,3-Dihydroxy-3-methyl-1-[3-(5-methyl-2-phenyl-oxazol-4-ylmethoxy)benzyl]-urea]
- inhibition at 10 µM (5-Lipoxygenase; 10 μM): 69%

Compound: COc1ccc2c(c1)c(CC(=O)O)c(C)n2C(=O)c1ccc(Cl)cc1 [Indomethacin, reference compound]
- % Inhibition of LTB4 (LTB4 Synthesis; 4 mg/kg p.o.): 12%

Compound: CC(C(=O)O)c1cccc(C(=O)c2ccccc2)c1 (stereo not shown) [Ketoprofen, reference compound]
- % Inhibition of LTB4 (LTB4 Synthesis; 10 mg/kg p.o.): 35%

Compound: COc1ccc2cc([C@H](C)C(=O)O)ccc2c1 [Naproxen, reference compound]
- % Inhibition of LTB4 (LTB4 Synthesis; 4 mg/kg p.o.): 0%

Compound: O=C1CCN(c2ccccc2)N1 [Phenidone, reference compound]
- ED50 (LTB4 Synthesis; p.o.): 10 mg/kg
